Assay results reported in patent publication US20060074243A1, “Hydroxamic acid and amide compounds and their use as protease inhibitors” (Pharmacia Corporation, priority 2002, published 2006).

Assays:
Human recombinant MMP-2 = molecular target: T1, Human recombinant MMP-2 (Homo sapiens, UniProt P08253); test: In vitro MMP inhibition analysis (fluorogenic peptide substrate cleavage), Ki; assay type: biochemical; settings: Table 2
T1 construct: made in house; host or cells: MMP-2-transfected p2AHT2 cells
T1 sequence (P08253 110-660): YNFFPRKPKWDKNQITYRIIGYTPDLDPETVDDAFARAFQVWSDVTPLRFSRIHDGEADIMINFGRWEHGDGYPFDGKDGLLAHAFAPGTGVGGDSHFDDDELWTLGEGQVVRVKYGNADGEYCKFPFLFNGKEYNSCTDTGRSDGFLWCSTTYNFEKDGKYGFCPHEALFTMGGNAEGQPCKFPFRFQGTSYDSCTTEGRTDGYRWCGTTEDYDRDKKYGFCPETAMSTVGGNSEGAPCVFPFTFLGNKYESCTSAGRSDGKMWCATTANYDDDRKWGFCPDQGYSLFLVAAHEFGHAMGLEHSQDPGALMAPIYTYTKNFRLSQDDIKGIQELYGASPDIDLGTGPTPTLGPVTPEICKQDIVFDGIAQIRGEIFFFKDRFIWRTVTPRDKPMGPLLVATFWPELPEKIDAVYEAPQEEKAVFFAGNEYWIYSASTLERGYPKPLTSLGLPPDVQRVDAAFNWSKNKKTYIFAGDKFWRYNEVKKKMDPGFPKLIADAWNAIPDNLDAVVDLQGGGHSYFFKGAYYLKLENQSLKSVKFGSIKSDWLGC
Summary of the method: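 Human recombinant MMP-2 from transfected p2AHT2 cells was activated with APMA or trypsin and incubated 1 h at room temperature with compounds and 4 μM MCA-RPLGL(Dpa)ARER-NH2. Buffer was pH 7.5 Tris/NaCl/CaCl2, and fluorescence was read at ex 330/em 420 nm. Ki was fitted by Morrison's equation without substrate correction.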

Human recombinant MMP-13 = molecular target: T2, Human recombinant MMP-13 (Homo sapiens, UniProt P45452); test: as above; assay type: biochemical; settings: Table 2
T2 construct: made in house; host or cells: baculovirus / insect cells
Summary of the method: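 Baculovirus-expressed full-length MMP-13 proenzyme was purified on heparin-agarose and zinc-chelate columns, then APMA-activated. It cleaved 4 μM MCA/Dpa fluorogenic peptide in 100 mM Tris-HCl, 100 mM NaCl, 10 mM CaCl2, 0.05% Brij-23, pH 7.5, for 1 h at room temperature (ex 330/em 420 nm). Ki came from Morrison-equation fits with substrate ≤Km, uncorrected.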

SMILES	Ki (Human recombinant MMP-2) [nM]	Ki (Human recombinant MMP-13) [nM]
CCCCOc1ccc(-c2ccc(S(=O)(=O)C3(C(=O)NO)CCOCC3)cc2)cc1C(F)(F)F [Example 78]	55.5	16.6
O=C(NO)C1(S(=O)(=O)c2ccc(-c3ccc(CCC(F)(F)C(F)(F)F)cc3)cc2)CCS(=O)(=O)CC1 [Example 167]	1.9	0.74
O=C(c1ccc2cc(-c3ccc(S(=O)(=O)C4(C(=O)NO)CCOCC4)cc3)ccc2c1)N1CCOCC1 [Example 222]	7.8	0.612
O=C(N1CCOCC1)N1CCC(C(=O)NO)(S(=O)(=O)c2ccc(-c3ccc(CCC(F)(F)C(F)(F)F)cc3)cc2)CC1 [Example 171]	0.24	0.23
CC[C@@H](C)NC(=O)c1ccc(-c2ccc(S(=O)(=O)C3(C(=O)NO)CCOCC3)cc2)nc1 [Example 207]	4.99	0.729
O=C(NO)C1(S(=O)(=O)c2ccc(-c3cnc(OCCC4CCCC4)cn3)cc2)CCOCC1 [Example 180]	0.295	0.15
CC(C)(C)NC(=O)c1ccc(-c2ccc(S(=O)(=O)C3(C(=O)NO)CCOCC3)cc2)nc1 [Example 205]	15.1	1.19
CN(C)C(=O)c1ccc2cc(-c3ccc(S(=O)(=O)C4(C(=O)NO)CCOCC4)cc3)ccc2c1 [Example 221]	5.61	0.736
O=C(NCC1CC1)c1cnc(-c2ccc(S(=O)(=O)C3(C(=O)NO)CCOCC3)cc2)cn1 [Example 191]	0.75	0.24
O=C(NO)C1(S(=O)(=O)c2ccc(-c3cnc(OCC4CCC4)cn3)cc2)CCOCC1 [Example 178]	0.1	0.08
COCCC(C(=O)NO)S(=O)(=O)c1ccc(-c2ccc(CCC(F)(F)C(F)(F)F)cc2)cc1 (stereo not drawn) [Example 177]	1.57	0.82
COCCN1CCC(C(=O)NO)(S(=O)(=O)c2ccc(-c3cnc(CCC(F)(F)F)cn3)cc2)CC1 [Example 214]	2.09	0.661
CCCc1ccc(-c2ccc(S(=O)(=O)C3(C(=O)NO)CCOCC3)cc2)cc1 [Example 87]	0.158	0.138
CN(C)C(=O)N1CCC(C(=O)NO)(S(=O)(=O)c2ccc(-c3ccc(CCC(F)(F)C(F)(F)F)cc3)cc2)CC1 [Example 173]	0.35	0.32
CC(C)NC(=O)c1ccc(-c2ccc(S(=O)(=O)C3(C(=O)NO)CCOCC3)cc2)nc1 [Example 204]	4.32	0.751
COCCOc1ccc(-c2ccc(S(=O)(=O)C3(C(=O)NO)CCOCC3)cc2)cc1 [Example 70]	0.177	0.03
C#CCN(C)C(=O)c1ccc2cc(-c3ccc(S(=O)(=O)C4(C(=O)NO)CCOCC4)cc3)ccc2c1 [Example 216]	2.51	0.572
O=C(NO)C1(S(=O)(=O)c2ccc(-c3ccccc3CO)cc2)CCOCC1 [Example 197]	6200	1080
O=C(NO)C1(S(=O)(=O)c2ccc(-c3cnc(CCCC(F)(F)F)cn3)cc2)CCN(C2CC2)CC1 [Example 218]	1.93	0.267
COCCOC1CCC(C(=O)NO)(S(=O)(=O)c2ccc(-c3ccc(CCCC(F)(F)F)cn3)cc2)CC1 (stereo not drawn) [Example 209]	0.081	0.029
Cc1nc(CCc2ccc(-c3ccc(S(=O)(=O)C4(C(=O)NO)CCOCC4)cc3)cc2)no1 [Example 219]	0.588	0.111
CCCCc1cnc(-c2ccc(S(=O)(=O)C3(C(=O)NO)CCN(CCOC)CC3)cc2)cn1 [Example 206]	2.98	0.41
CC(C)N(C(=O)N1CCC(C(=O)NO)(S(=O)(=O)c2ccc(-c3ccc(CCC(F)(F)C(F)(F)F)cc3)cc2)CC1)C(C)C [Example 174]	1.24	1.92
COCCOC1CCC(C(=O)NO)(S(=O)(=O)c2ccc(-c3cnc(CCCC(F)(F)F)cn3)cc2)CC1 (stereo not drawn) [Example 210]	1.01	0.151
O=C(NC1CCCC1)c1ccc(-c2ccc(S(=O)(=O)C3(C(=O)NO)CCOCC3)cc2)nc1 [Example 198]	2.16	0.323
CC(C)CCOc1ccc(-c2ccc(S(=O)(=O)C3(C(=O)NO)CCOCC3)cc2)cc1C(F)(F)F [Example 86]	85.7	36.2
O=C(NO)C1(S(=O)(=O)c2ccc(-c3ccc(OC(F)(F)F)cc3)cc2)CCOCC1 [Example 80]	0.098	0.068

SMILES	Ki (Human recombinant MMP-2) [nM]	Ki (Human recombinant MMP-13) [nM]
O=C(NO)C1(S(=O)(=O)c2ccc(-c3nc4ccccc4o3)cc2)CCOCC1 [Example 193]	1.34	1.69
C#CCN1CCC(C(=O)NO)(S(=O)(=O)c2ccc(-c3ccc(CCC(F)(F)C(F)(F)F)cn3)cc2)CC1 [Example 199]	0.085	0.086
COCCO[C@H]1CC[C@](C(=O)NO)(S(=O)(=O)c2ccc(-c3cnc(CCC(F)(F)C(F)(F)F)cn3)cc2)CC1 [Example 187]	0.32	0.1
O=C(NCC(F)(F)C(F)(F)F)c1cnc(-c2ccc(S(=O)(=O)C3(C(=O)NO)CCOCC3)cc2)cn1 [Example 192]	0.89	0.22
COCCN1CCC(C(=O)NO)(S(=O)(=O)c2ccc(-c3cnc(OCCC4CCCC4)cn3)cc2)CC1 [Example 200]	0.404	0.144
CO[C@H]1CC[C@](C(=O)NO)(S(=O)(=O)c2ccc(-c3cnc(CCC(F)(F)C(F)(F)F)cn3)cc2)CC1 [Example 183]	0.35	0.13
CCN1CCC(C(=O)NO)(S(=O)(=O)c2ccc(-c3cnc(CCCC(F)(F)F)cn3)cc2)CC1 [Example 217]	9.06	1.2
O=C(NO)C1(S(=O)(=O)c2ccc(-c3cnc(OCC4CC4)cn3)cc2)CCOCC1 [Example 168]	0.08	0.06
CCCCNc1cnc(-c2ccc(S(=O)(=O)C3(C(=O)NO)CCOCC3)cc2)cn1 [Example 83]	7.44	1.31
O=C(NO)C1(S(=O)(=O)c2ccc(-c3ccc4c(c3)OCO4)cc2)CCOCC1 [Example 188]	0.13	0.08
CCCCNC(=O)c1cnc(-c2ccc(S(=O)(=O)C3(C(=O)NO)CCOCC3)cc2)cn1 [Example 184]	0.8	0.21
CCN1CCC(C(=O)NO)(S(=O)(=O)c2ccc(-c3cnc(CCC(F)(F)F)cn3)cc2)CC1 [Example 213]	3.57	1.41
O=C(NO)C1(S(=O)(=O)c2ccc(-c3ccc(CCC(F)(F)F)cn3)cc2)CCOCC1 [Example 176]	0.04	0.02
CCCCOc1ccc(-c2ccc(S(=O)(=O)C3(C(=O)NO)CCOCC3)cc2)cc1 [Example 77]	0.18	0.0485
CC(C)CNC(=O)c1cnc(-c2ccc(S(=O)(=O)C3(C(=O)NO)CCOCC3)cc2)cn1 [Example 186]	2.33	0.55
O=C(Cc1ccc(-c2ccc(S(=O)(=O)C3(C(=O)NO)CCOCC3)cc2)nc1)N1CCCCC1 [Example 212]	34.7	0.679
O=C(NCC1CCCCC1)c1cnc(-c2ccc(S(=O)(=O)C3(C(=O)NO)CCOCC3)cc2)cn1 [Example 190]	1.7	0.28
COC/C(Cl)=C/c1cnc(-c2ccc(S(=O)(=O)C3(C(=O)NO)CCOCC3)cc2)cn1 [Example 165]	2.46	0.84
O=C(NO)C1(S(=O)(=O)c2ccc(-c3ccc(C(F)(F)F)cn3)cc2)CCOCC1 [Example 82]	0.2	0.13
O=C(NO)C1(S(=O)(=O)c2ccc(-c3cnc4ccccc4n3)cc2)CCOCC1 [Example 194]	176	319
O=C(NO)C1(S(=O)(=O)c2ccc(-c3ccc(CCC(F)(F)C(F)(F)F)cn3)cc2)CCOCC1 [Example 201]	0.045	0.02
CCc1ccc(-c2ccc(S(=O)(=O)C3(C(=O)NO)CCOCC3)cc2)cc1 [Example 79]	0.184	0.091
O=C(NO)C1(S(=O)(=O)c2ccc(-c3ccc(OCC(F)(F)C(F)(F)F)cc3)cc2)CCOCC1 [Example 95]	0.17	0.155
CC(C)CCc1cnc(-c2ccc(S(=O)(=O)C3(C(=O)NO)CCOCC3)cc2)cn1 [Example 169]	1.09	0.24
CC[C@H](C)NC(=O)c1ccc(-c2ccc(S(=O)(=O)C3(C(=O)NO)CCOCC3)cc2)nc1 [Example 208]	10.6	0.715
COc1ccc(C(=O)c2cnc(-c3ccc(S(=O)(=O)C4(C(=O)NO)CCOCC4)cc3)cn2)cc1 [Example 179]	2.99	0.973
O=C(NO)C1(S(=O)(=O)c2ccc(-c3cnc(-n4cccc4)cn3)cc2)CCOCC1 [Example 94]	1.09	0.428
